Data published in patent US7629358B2, “Compounds useful for the treatment of diseases” (Pfizer Inc, priority 2004, dated 2009).

Target: T1, human β2 adrenergic receptor (Homo sapiens, UniProt P07550)
T1 construct: expressed in transfected cells; host or cells: CHO (Chinese Hamster Ovary) cells, CHOhβ2
Assay: cAMP Flashplate assay in CHO cells recombinantly expressing the human β2 adrenergic receptor
Format: cell-based
Conditions: CHOhβ2 cells, 1 hour incubation, data as % Isoprenaline activity
Experimental: According to another alternative, the agonist potency for the β2 receptor of the compounds of the formula (1) may also be determined by the measure of the concentration of compound according to the present invention required to produce half maximal effect (EC50) for the β2 receptor.
10 mM/100% DMSO (dimethylsulfoxide) stock of compound is diluted to required top dose in 4% DMSO. This top dose is used to construct a 10-point semi-log dilution curve, all in 4% DMSO. Isoprenaline (Sigma, I-5627) was used as a standard in every experiment and for control wells on each plate. Data was expressed as % Isoprenaline response.
CHO (Chinese Hamster Ovary) cells recombinantly expressing the human β2 adrenergic receptor (from Kobilka et al., PNAS 84: 46-50, 1987 and Bouvier et al., Mol Pharmacol 33: 133-139 1988 CHOhβ2) were grown in Dulbeccos MEM/NUT MIX F12 (Gibco, 21331-020) supplemented with 10% foetal bovine serum (Sigma, F4135, Lot 90K8404 Exp 09/04), 2 mM glutamine (Sigma, G7513), 500 μg/ml geneticin (Sigma, G7034) and 10 μg/ml puromycin (Sigma, P8833). Cells were seeded to give about 90% confluency for testing.
25 μl/well each dose of compound was transferred into a cAMP-Flashplate® (NEN, SMP004B), with […] as basal controls and 100 nM Isoprenaline as max controls. This was diluted 1:2 by the addition of 25 μl/well PBS. Cells were trypsinised (0.25% Sigma, T4049), washed with PBS (Gibco, 14040-174) and resuspended in stimulation buffer (NEN, SMP004B) to give 1×10^6 cells/ml CHOhB2. Compounds were incubated with 50 μl/well cells for 1 hour. Cells were then lysed by the addition of 100 μl/well detection buffer (NEN, SMP004B) containing 0.18 μCi/ml ^125I-cAMP (NEN, NEX-130) and plates were incubated at room temperature for a further 2 hours. The amount of ^125I-cAMP bound to the Flashplate® was quantified using a Topcount NXT (Packard), normal counting efficiency for 1 minute. Dose-response data was expressed as % Isoprenaline activity and fitted using a four parameter sigmoid fit.

T1 sequence (P07550 whole entry): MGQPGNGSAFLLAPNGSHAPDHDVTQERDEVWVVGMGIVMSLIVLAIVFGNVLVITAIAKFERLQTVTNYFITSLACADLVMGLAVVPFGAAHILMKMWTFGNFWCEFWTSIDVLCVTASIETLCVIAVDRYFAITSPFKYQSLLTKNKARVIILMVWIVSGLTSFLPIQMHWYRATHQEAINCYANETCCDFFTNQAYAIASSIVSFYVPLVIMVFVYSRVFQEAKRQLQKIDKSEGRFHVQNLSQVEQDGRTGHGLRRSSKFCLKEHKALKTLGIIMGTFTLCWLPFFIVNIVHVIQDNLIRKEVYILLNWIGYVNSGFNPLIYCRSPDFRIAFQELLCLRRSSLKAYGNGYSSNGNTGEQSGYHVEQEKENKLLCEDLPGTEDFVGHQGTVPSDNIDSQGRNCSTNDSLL

| EC50 [nM] | SMILES |
| --- | --- |
| 0.064 | C[C@H](Cc1cccc(CC(=O)NCC23CC4CC(CC(C4)C2)C3)c1)NC[C@H](O)c1ccc(O)c(CO)c1 [Example 14, N-(1-adamantylmethyl)-2-{3-[(2R)-2-({(2R)-2-hydroxy-2-[4-hydroxy-3-(hydroxymethyl)phenyl]ethyl}amino)propyl]phenyl}acetamide] |
| 0.874 | C[C@H](Cc1cccc(CC(=O)N(C)CCC2CCCCC2)c1)NC[C@H](O)c1ccc(O)c(CO)c1 [Example 16, N-(2-cyclohexylethyl)-2-{3-[(2R)-2-({(2R)-2-hydroxy-2-[4-hydroxy-3-(hydroxymethyl)phenyl]ethyl}amino)propyl]phenyl}-N-methylacetamide] |
| 0.08 | CC(C)(Cc1cccc(CC(=O)N2CCc3ccccc3C2)c1)NC[C@H](O)c1ccc(O)c(CO)c1 [Example 23, 4{(1R)-2-[(2-{3-[2-(3,4-dihydroisoquinolin-2(1H)-yl)-2-oxoethyl]phenyl}-1,1-dimethylethyl)amino]-1-hydroxyethyl}-2-(hydroxymethyl)phenol] |
| 0.15 | CC(C)(Cc1cccc(CC(=O)NCc2cc(C(F)(F)F)ccc2F)c1)NC[C@H](O)c1ccc(O)c(CO)c1 [Example 24, N-[2-fluoro-5-(trifluoromethyl)benzyl]-2-{3-[2-({(2R)-2-hydroxy-2-[4-hydroxy-3-(hydroxymethyl)phenyl]ethyl}amino)-2-methylpropyl]phenyl}acetamide] |
| 0.838 | O=C(Cc1cccc(CCNC[C@H](O)c2ccc(O)c(CO)c2)c1)NCCc1ccccc1 [Example 46, 2-{3-[2-({(2R)-2-hydroxy-2-[4-hydroxy-3-(hydroxymethyl)phenyl]ethyl}amino)ethyl]phenyl}-N-(2-phenylethyl)acetamide] |
| 0.444 | C[C@H](Cc1cccc(C(=O)NCc2ccc(S(N)(=O)=O)cc2)c1)NC[C@H](O)c1ccc(O)c(CO)c1 [Example 62, N-[4-(aminosulfonyl)benzyl]-3-[(2R)-2-({(2R)-2-hydroxy-2-[4-hydroxy-3-(hydroxymethyl)phenyl]ethyl}amino)propyl]benzamide] |
| 0.075 | CC(C)(Cc1cccc(C(=O)NCCc2cccc(F)c2)c1)NC[C@H](O)c1ccc(O)c(CO)c1 [Example 63, N-[2-(3-Fluorophenyl)ethyl]-3-[2-({(2R)-2-hydroxy-2-[4-hydroxy-3-(hydroxymethyl)phenyl]ethyl}amino)-2-methylpropyl]benzamide] |
| 1.16 | CC(C)(Cc1cccc(C(=O)NCC2Cc3ccccc3C2)c1)NC[C@H](O)c1ccc(O)c(CO)c1 [Example 66] |
| 0.434 | Cc1cccc(CCNC(=O)c2cccc(CC(C)(C)NC[C@H](O)c3ccc(O)c(CO)c3)c2)n1 [Example 88] |
| 0.1 | CC(C)(Cc1cccc(C(=O)NCCc2ccccc2C(F)(F)F)c1)NC[C@H](O)c1ccc(O)c(CO)c1 [Example 102] |
| 0.134 | CC(C)(Cc1cccc(C(=O)NCCC23CC4CC(CC(C4)C2)C3)c1)NC[C@H](O)c1ccc(O)c(CO)c1 [Example 114] |

| SMILES | EC50 [nM] |
| --- | --- |
| C[C@H](Cc1cccc(CC(=O)NC2CCCCCC2)c1)NC[C@H](O)c1ccc(O)c(CO)c1 [Example 1, N-cycloheptyl-2-{3-[(2R)-2-({(2R)-2-hydroxy-2-[4-hydroxy-3-(hydroxymethyl)phenyl]ethyl}amino)propyl]phenyl}acetamide] | 0.143 |

Test system: not given
Assay: not given
Conditions: not given

| melting point [°C] | SMILES |
| --- | --- |
| 139 to 140 | CC(C)(Cc1cccc(C(=O)NCCc2ccc(Cl)cc2)c1)NC[C@H](O)c1ccc(O)c(CO)c1 [Example 33, N-[2-(4-chlorophenyl)ethyl]-3-{2-[(2R)-2-hydroxy-2-(4-hydroxy-3-hydroxymethyl-phenyl)ethylamino]-2-methylpropyl}benzamide] |
